# Reference: article PMC4961418, “A Selective Irreversible Inhibitor of Furin Does Not Prevent Pseudomonas Aeruginosa Exotoxin A-Induced Airway Epithelial Cytotoxicity” (PLoS ONE, 2016)
# Side chains are listed from the residue outwards. Peptide text beside a SMILES is read from it. * marks the point of attachment. Biotin = O=C1N[C@H]2[C@H](CS[C@H]2CCCCC(=O)*)N1; X1 = N=C(N)NCCCC(N*)P(=O)(Oc1ccccc1)Oc1ccccc1; Palmitoyl = CCCCCCCCCCCCCCCC(=O)*; Ahx = NCCCCCC(=O)O
# Tests used:
# [1] = test system: chymotrypsin; assay: Fluorogenic protease activity assay, chymotrypsin; format: biochemical, human; settings: 10 μM inhibitor, Suc-Ala-Ala-Pro-Phe-NH2Mec 50 μM, N = 3
# From the text: (§1) Recombinant human enzymes were sourced as follows: furin and matriptase (R&D Systems); prostasin (Sino Biological); trypsin and chymotrypsin (Sigma-Aldrich); factor Xa and neutrophil elastase (Merck Millipore) and proteinase-3 and cathepsin G (Elastin Products, Missouri). Fluorogenic substrates were sourced as follows: p-Glu-Arg-Thr-Lys-Arg-NH2Mec and Boc-Gln-Ala-Arg-NH2Mec (R&D Systems); Boc-Ile-Glu-Gly-Arg-NH2Mec (Bachem); Z-Gly-Gly-Arg-NH2Mec, MeOSuc-Ala-Ala-Pro-Val-NH2Mec and Suc-Ala-Ala-Pro-Phe-NH2Mec (Sigma-Aldrich). All chemicals and reagents for the synthesis of QUB-F1 were supplied by Sigma-Aldrich unless otherwise indicated. Fmoc-Lys(Boc)-SASRIN resin was sourced from Bachem. Fmoc-protected amino acids and HCTU were supplied by Merck Millipore.
# (§2) Recombinant protease activities were assessed using the cognate fluorogenic substrates (final concentration 50 μM) as follows: trypsin (Z-Gly-Gly-Arg-NH2Mec), prostasin and matriptase (Boc-Gln-Ala-Arg-NH2Mec), factor Xa (Boc-Ile-Glu-Gly-Arg-NH2Mec), neutrophil elastase and proteinase 3 (MeO-Suc-Ala-Ala-Pro-Val-NH2Mec), chymotrypsin and cathepsin G (Suc-Ala-Ala-Pro-Phe-NH2Mec). The rate of substrate hydrolysis in the presence or absence of furin inhibitors was assessed by continuous recording at λex 360 nm, λem 480 nm, over a period of 60 minutes using a FLUOstar Optima microplate reader (BMG Labtech). […]
# [2] = test system: cell surface furin-like activity (CuFi-1 epithelial cells); assay: Epithelial cell surface furin-like activity assay; format: cell-based, human; settings: 10 μM inhibitor, pERTKR substrate 50 μM applied to cell cultures
# Protocol: The CuFi-1 cell line was derived from human airway epithelium of a CF patient (F508del/F508del) transformed with a reverse transcriptase component of telomerase, hTERT and human papillomavirus type 16 E6 and E7 genes. Cells were grown as submerged cultures using bronchial epithelial growth medium (BEBM including a supplement pack) containing: epidermal growth factor, hydrocortisone, bovine pituitary extract, transferrin, bovine insulin, triiodothyronine, epinephrine, retinoic acid, penicillin-streptomycin (0.025 μg/ml), gentamycin ([…]) and amphotericin (25 μg/ml).
# Cell culture media was removed from CuFi-1 epithelial cells grown in 96 well microtitre plates (Thermo Scientific Sterilin; clear bottom, black walled) and replaced with PBS /+ inhibitor compounds (furin I or QUB-F1). The furin fluorogenic substrate (pERTKR -NH2Mec) was then applied directly to the cell cultures to give a final concentration of 50 μM. Cell surface proteolytic activity was measured by monitoring the formation of–NH2Mec at λex 360 nm and λem 480 nm using a 5 mm orbital scan every 60 s over a 1 h period (FLUOstar Optima microplate reader; BMG Labtech).
# Fig 4 Effect of furin inhibitors on PEA-induced epithelial cell toxicity. (A) Cell toxicity (%) induced by 2 μg/ml PEA (24 h) was measured in the presence or absence of furin I or QUB-F1. Data represent mean ± s.e.m. *P<0.05. […]
# [3] = target: T1, factor Xa (Homo sapiens, UniProt P00742); assay: Fluorogenic protease activity assay, factor Xa; format: biochemical; settings: 10 μM inhibitor, Boc-Ile-Glu-Gly-Arg-NH2Mec 50 μM, N = 3
# T1 construct: factor Xa and neutrophil elastase (Merck Millipore); purchased Merck Millipore
# T1 sequence (P00742 235-488 limits assumed): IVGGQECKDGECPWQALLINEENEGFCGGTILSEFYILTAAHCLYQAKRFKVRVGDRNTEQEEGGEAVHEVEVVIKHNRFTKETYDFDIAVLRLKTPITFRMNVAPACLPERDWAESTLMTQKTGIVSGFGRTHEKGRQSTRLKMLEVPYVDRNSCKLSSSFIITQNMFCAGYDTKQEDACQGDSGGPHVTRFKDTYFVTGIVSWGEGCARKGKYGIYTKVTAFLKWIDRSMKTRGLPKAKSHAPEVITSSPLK
# T1 sequence (P00742 41-179 partner limits assumed): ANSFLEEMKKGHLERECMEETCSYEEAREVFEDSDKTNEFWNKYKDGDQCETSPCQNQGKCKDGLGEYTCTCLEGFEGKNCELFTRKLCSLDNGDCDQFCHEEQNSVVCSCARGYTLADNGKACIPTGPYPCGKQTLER
# From the text: as §1, §2
smiles,measurement,setting,value
"CCCCCCCCCCCCCCCC(=O)N[C@@H](CCCCNC(=O)CCCCCNC(=O)CCCC[C@@H]1SC[C@@H]2NC(=O)N[C@@H]21)C(=O)N[C@@H](CCCNC(=N)N)C(=O)N[C@H](C(=O)N[C@@H](CCCCN)C(=O)NC(CCCNC(=N)N)P(=O)(Oc1ccccc1)Oc1ccccc1)C(C)C (stereo partly drawn) [QUB-F1, N^α-Pal-N^ω-(Biotinyl-Ahx)-Lys-RVKR^P(OPh)2] (Palmitoyl-K([Ahx-Biotin])RVK-X1)",inhibition of chymotrypsin,[1],Neither compound was found to inhibit
same,inhibition of cell surface furin-like activity,[2],inhibited cell surface furin-like activity to the same extent as furin I
same,inhibition of factor Xa,[3],did not
